Laboratory results reported in US5139945A, “Thermostable alginate lyase from Bacillus steraothermophilus” (Novo Industri A/S, priority 1988, dated 1992).

The compounds below were run on Alginate lyase from Bacillus stearothermophilus (assay: Effects of chemicals commonly used in water cooling systems on alginate lyase activity). Settings: chemical at 10 mM final concentration, 16 hours incubation.
Assay type: biochemical
Method: Alginate lyase activity (increase in optical density at 230 nm) at 55° C. was monitored with sodium alginate as the substrate. Constant amounts of substrate, enzyme and MgCl2 (10 mM) were present in all reactions. Citrate-phosphate buffer was used between pH 5.0 and 6.5 and phosphate buffer was used between pH 6.0 and 8.0.
EDTA (ethylene diamine tetraacetate), NaCl, FeSO4, NaAlO2, Na2 MoO4, Zn, glutaraldehyde hydrazine and sodium nitrite were tested at the final concentration of 10 mM. Alginate lyase activity was monitored as described in Example 2 over 16 hours incubation.

| Structure (SMILES) | Inhibition (%) of Chemicals on Enzyme Activity [%] |
| --- | --- |
| O=C(O)CN(CCN(CC(=O)O)CC(=O)O)CC(=O)O [EDTA, ethylene diamine tetraacetate] | 0 |
| O=S(=O)([O-])[O-].[Fe+2] [FeSO4] | 0 |
| [Na+].[Na+].[O]=[Mo](=[O])([O-])[O-] [Na2 MoO4] | 0 |
| [Na+].[O]=[Al-]=[O] [NaAlO2] | 0 |
| [Cl-].[Na+] [NaCl] | 48.7 |
| O=N[O-].[Na+] [NaNO2, sodium nitrite] | 0 |
| [Zn] [Zn] | 43.7 |
| O=CCCCC=O [glutaraldehyde] | 0 |
| NN [hydrazine] | 0 |

Same assay, conditions: mineral content of cooling water

| Structure (SMILES) | inhibition of the enzyme (in words) |
| --- | --- |
| [Cl-].[Na+] [NaCl] | partially inhibit |
| [Zn] [Zn] | partially inhibit |
